Experimental data published in ChEMBL document CHEMBL2150933 (J Med Chem, 2012).

Experiments:
[1] = Plasma concentration in CD1 mouse at 1 mg/kg, iv administered as single dose measured after 120 mins; assay type: ADME, organism-based; parameters: dose 1 mg/kg, route intravenous
[2] = Toxicity in iv dosed CD1 mouse administered Q2D for 8 days; assay type: organism-based; details: CD1, mouse, in vivo
[3] = Plasma concentration in CD1 mouse at 1 mg/kg, iv administered as single dose measured after 5 mins; assay type: ADME, organism-based; parameters: dose 1 mg/kg, route intravenous
[4] = Plasma concentration in CD1 mouse at 1 mg/kg, iv administered as single dose measured after 30 mins; assay type: ADME, organism-based; parameters: dose 1 mg/kg, route intravenous

CO[C@H](C(=O)[C@@H](O)[C@@H](C)O)[C@@H]1Cc2cc3cc(O[C@H]4C[C@@H](O[C@H]5C[C@@H](O)[C@H](O)[C@@H](C)O5)[C@H](O)[C@@H](C)O4)c(C)c(O)c3c(O)c2C(=O)[C@H]1O[C@H]1C[C@@H](O[C@H]2C[C@@H](O[C@H]3C[C@](C)(O)[C@H](O)[C@@H](C)O3)[C@@H](O)[C@@H](C)O2)[C@H](O)[C@@H](C)O1 [PLICAMYCIN]
concentration at 2 h [1]: < 100 nM
MTD at 192 h [2]: 0.6 mg/kg
concentration at 5 min [3]: 2700 nM
concentration at 0.5 h [4]: 200 nM
